Measured values published in PMC5550455, “Unusual Inner-Salt Guaiazulene Alkaloids and bis-Sesquiterpene from the South China Sea Gorgonian Muriceides collaris” (Scientific Reports, 2017).
Converted amounts (≈) assume the structure as drawn. Read-outs that look alike come from different tables or passages of the source.

Assays:
[1] = system: K562 human tumor cell line; assay: Cytotoxicity assay, MTT method, K562; type: cell-based
Excerpt: (§1) A frozen specimen of Muriceides collaris (9.6 kg, wet weight) was homogenized and then extracted with MeOH four times (each time, 3 days) at room temperature. The combined solutions were concentrated in vacuo and the concentrated extract was subsequently desalted by redissolving with MeOH to yield a residue (221 g). The crude extract was subjected to silica gel vacuum liquid chromatography (VLC), eluting with a gradient of petroleum/acetone (from 10:0 to 1:1, v:v) and subsequently CH2Cl2/MeOH (from 20:1 to 0:1, v-v) to obtain nine fractions (Fr.A−Fr.I). Each fraction was detected by TLC, and was tested for their cytotoxicity against HeLa and K562 cell lines at 50 μg/mL. […] Fr.G (3.5 g) was then subjected to a Sephadex LH-20 column eluted with CH2Cl2/MeOH (1:1, v/v) to give […]. Fr.G-3 (1.018 g) was separated by silica gel CC (CH2Cl2/MeOH, 30:1, v-v) to give six subfractions (Fr.G-3-1 to Fr.G-3-6). Fr.G-3-2 (223 mg) was purified by ODS CC with a gradient of MeOH/H2O (from 20% to 100%) to yield four subfractions (Fr.G-3-2-1 to Fr.G-3-2-4). Fr.G-3-2-3 (25.0 mg) was purified by semi-preparative HPLC (ODS, 5 μm, 250 × 10 mm; MeOH/H2O, 65:35, v/v; 1.5 mL/min) to afford muriceidines A (1, 10.3 mg) and B (2, 9.6 mg). Fr.G-3-4 (137 mg) was purified by ODS column chromatograph with a gradient of MeOH/H2O (from 20% to 100%) to yield four subfractions (Fr.G-3-4-1 to Fr.G-3-4-4). And Fr.G-3-4-1 (9.6 mg) was further purified by semi-preparative HPLC (ODS, 5 μm, 250 × 10 mm; MeOH/H2O, 60:40, v/v; 1.5 mL/min) to afford muriceidine C (3, 4.6 mg). Similarly, muriceidone A (4, 3.7 mg) and the co-isolated known 3-formylguaiazulene (6, 9.1 mg) was obtained in subfraction Fr. […] And GA (5, 1.5 mg) was obtained in subfraction Fr. […] Chiral seperations of partial 2 [Daicel Chiralpack IB, 5 μm, 4.6 mm × 250 mm], 3 [Daicel Chiralpack IC, 5 μm, 4.6 mm × 250 mm; MeOH, 1.5 mL/min], and 4 [Daicel Chiralpack IC, 5 μm, 4.6 mm × 250 mm; Hexane/isopropyl alcohol 97:3, 1.5 mL/min] were performed on Agilent analytical HPLC system to afford optically pure (+)-2 (0.9 mg), (−)-2 (1.2 mg), (+)-3 (2.5 mg), (−)-3 (2.2 mg), (+)-4 (1.5 mg), and (−)-4 (1.6 mg) (Fig. S1).
(§2) The cytotoxicity of Fr. A–I against K562 and HeLa cell lines and compounds 1–4 against K562, HeLa, A-549, and HL-60 human tumor cell lines were determined by MTT method with Adriamycin as a positive control. The IC50 value of each compound was calculated by Reed and Muench’s method. Experiments were repeated three times and carried out in triplicate.

[2] = system: HL-60 human tumor cell line; assay: Cytotoxicity assay, MTT method, HL-60; type: cell-based; settings: HL-60 cell line
Procedure: as §2

[3] = system: HeLa human tumor cell line; assay: Cytotoxicity assay, MTT method, HeLa; type: cell-based
Excerpt: as §1, §2

[4] = system: A549 human tumor cell line; assay: Cytotoxicity assay, MTT method, A549; type: cell-based
Procedure: The cytotoxicity of Fr. […] The IC50 value of each compound was calculated by Reed and Muench’s method. Experiments were repeated three times and carried out in triplicate.

[5] = system: larvae of the barnacle Balanus albicostatus; assay: Antifouling assay, barnacle larval settlement and mortality; type: in vivo, Balanus albicostatus Pilsbry; settings: Fistulobalanus albicostatus, read-out: EC50 antifouling activity (50% of larval population inhibited to settle)
Procedure: The antifouling activity of compounds 1–6 against larval of the barnacle Balanus albicostatus Pilsbry were determined according to the literature. EC50 was calculated as the concentration where 50% of the larval population was inhibited to settle as compared to the control while LC50 was calculated as the concentration where 50% of the larval population was dead. Experiments were repeated three times and carried out in triplicate.

[6] = Homo sapiens, HL-60, MTT method

Structure (SMILES) | IC50 ([1]; MTT method) | IC50 ([2]; MTT method) | IC50 [3] | IC50 [4] | IC50 ([1]; Homo sapiens, K562, MTT method) | EC50 [5] | IC50 [2, 6] | IC50 ([3]; Homo sapiens, HeLa) | IC50 ([4]; Homo sapiens)
CC1=CC(=O)C2(C3C(=O)c4c(cc(C(C)C)c(C=O)c4C)C3(C)O)C(C)=CC=C(C(C)C)C=C12 (single isomer, unassigned; (-)) [(−)-4] | > 100 µM | > 100 µM | 40 µM | > 100 µM | – | – | – | – | –
Cc1cc(/C=C2\CCCN=C2C(=O)O)c2c(C)ccc(C(C)C)cc1-2 [compound 1, Muriceidine A] | 8.4 µM | – | – | – | 8.37 µM | 11.9 µg/mL (≈ 35.5 µM) | > 100 µM | 17.9 µM | > 100 µM
Cc1cc(/C=C2/C(C(=O)O)=NCC[C@H]2O)c2c(C)ccc(C(C)C)cc1-2 [(−)-2] | – | – | – | – | > 100 µM | – | > 100 µM | > 100 µM | > 100 µM
CC1=CC(=O)C2(C3C(=O)c4c(cc(C(C)C)c(C=O)c4C)C3(C)O)C(C)=CC=C(C(C)C)C=C12 (single isomer, unassigned; (+)) [(+)-4] | 88.4 µM | 54.2 µM | 42.7 µM | > 100 µM | – | – | – | – | –
CO[C@@H]1CCN=C(C(=O)O)/C1=C/c1cc(C)c2cc(C(C)C)ccc(C)c1-2 [(−)-3] | – | 5.1 µM | – | – | 53.2 µM | – | 5.08 µM | 53.2 µM | > 100 µM
CO[C@H]1CCN=C(C(=O)O)/C1=C/c1cc(C)c2cc(C(C)C)ccc(C)c1-2 [(+)-3] | – | – | – | – | 47.2 µM | – | 22.7 µM | 53.7 µM | > 100 µM
COC1CCN=C(C(=O)O)/C1=C/c1cc(C)c2cc(C(C)C)ccc(C)c1-2 (racemic) [compound 3, (±)-Muriceidine C] | 3.7 µM | 2.2 µM | – | – | 3.68 µM | – | 2.19 µM | > 100 µM | 82.7 µM
CC1=CC(=O)C2(C3C(=O)c4c(cc(C(C)C)c(C=O)c4C)C3(C)O)C(C)=CC=C(C(C)C)C=C12 (racemic) [compound 4, (±)-Muriceidone A] | – | – | > 100 µM | – | > 100 µM | – | > 100 µM | – | > 100 µM
Cc1cc(/C=C2/C(C(=O)O)=NCCC2O)c2c(C)ccc(C(C)C)cc1-2 (racemic) [compound 2, (±)-Muriceidine B] | – | – | – | – | > 100 µM | – | > 100 µM | > 100 µM | > 100 µM
COc1cccc2c1C(=O)c1c(O)c3c(c(O)c1C2=O)C[C@@](O)(C(=O)CO)C[C@@H]3O[C@H]1C[C@H](N)[C@H](O)[C@H](C)O1 [Adramycin, Adriamycin, reference compound] | – | – | – | – | 0.2 µM | – | 0.3 µM | 0.6 µM | 0.6 µM
Cc1cc(C=O)c2c(C)ccc(C(C)C)cc1-2 [compound 6, 3-formyl guaiazulene] | – | – | – | – | – | 2.39 µg/mL (≈ 10.6 µM) | – | – | –
Cc1cc(/C=C2/C(C(=O)O)=NCC[C@@H]2O)c2c(C)ccc(C(C)C)cc1-2 [(+)-2] | – | – | – | – | > 100 µM | – | > 100 µM | > 100 µM | > 100 µM
